Test results reported in PubChem BioAssay AID248 (DTP/NCI, 2004).
Several values for one entry are separate records, joined by “and”; a condition that tells them apart may be missing. Equal values may be shown once. Toxic doses and inconclusive results are not listed. No stated cut-off is given here; in the data, active means T/C of 150% or more; inactive means T/C below 125%.

Test system: L1210 leukemia ip in BDF1 mice, survival T/C
Assay: NCI In Vivo Anticancer Drug Screen. Data for tumor model L1210 Leukemia (intraperitoneal) in B6D2F1 (BDF1) mice
Settings: endpoint: mean survival time, higher = longer survival
Summary of the method: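 Read-out is survival time, reported as the treated-group measurement over the vehicle-control measurement.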

[1] = dose: 12.5 mg/kg/injection, schedule: Q04DX003 (ip), vehicle: saline
[2] = dose: 25.0 mg/kg/injection, schedule: Q04DX003 (ip), vehicle: saline
[3] = dose: 50.0 mg/kg/injection, schedule: Q04DX003 (ip), vehicle: saline
[4] = dose: 100.0 mg/kg/injection, schedule: Q01DX001 (ip), vehicle: saline
[5] = dose: 200.0 mg/kg/injection, schedule: Q01DX001 (ip), vehicle: saline
[6] = dose: 400.0 mg/kg/injection, schedule: Q01DX001 (ip), vehicle: saline
[7] = dose: 100.0 mg/kg/injection, schedule: Q04DX002 (ip), vehicle: Klucel (hydroxypropylcellulose) (HPC)
[8] = dose: 200.0 mg/kg/injection, schedule: Q04DX002 (ip), vehicle: Klucel (hydroxypropylcellulose) (HPC)
[9] = dose: 400.0 mg/kg/injection, schedule: Q04DX002 (ip), vehicle: Klucel (hydroxypropylcellulose) (HPC)
[10] = dose: 100.0 mg/kg/injection, schedule: Q01DX009 (ip), vehicle: Klucel (hydroxypropylcellulose) (HPC)
[11] = dose: 200.0 mg/kg/injection, schedule: Q01DX009 (ip), vehicle: Klucel (hydroxypropylcellulose) (HPC)
[12] = dose: 400.0 mg/kg/injection, schedule: Q01DX009 (ip), vehicle: Klucel (hydroxypropylcellulose) (HPC)
[13] = dose: 100.0 mg/kg/injection, schedule: Q01DX009 (ip), vehicle: saline
[14] = dose: 200.0 mg/kg/injection, schedule: Q01DX009 (ip), vehicle: saline
[15] = dose: 400.0 mg/kg/injection, schedule: Q01DX009 (ip), vehicle: saline
[16] = dose: 100.0 mg/kg/injection, schedule: Q04DX003 (ip), vehicle: saline with Tween-80
[17] = dose: 200.0 mg/kg/injection, schedule: Q04DX003 (ip), vehicle: saline with Tween-80
[18] = dose: 400.0 mg/kg/injection, schedule: Q04DX003 (ip), vehicle: saline with Tween-80

Measured: T/C

CC[C@H](CC[C@@H](C)[C@H]1CC[C@H]2[C@@H]3CC=C4C[C@@H](O)CC[C@]4(C)[C@H]3CC[C@]12C)C(C)C
inactive: dose: 12.5 mg/kg/injection, schedule: Q01DX001 (ip), vehicle: saline 93 % of control | [1] 98 % of control | dose: 25.0 mg/kg/injection, schedule: Q01DX001 (ip), vehicle: saline 94 % of control | [2] 105 % of control | dose: 50.0 mg/kg/injection, schedule: Q01DX001 (ip), vehicle: saline 88 % of control | [3] 98 % of control | dose: 75.0 mg/kg/injection, schedule: Q04DX003 (ip), vehicle: saline 89 % of control | [4] 89 % of control and 95 % of control | dose: 115.0 mg/kg/injection, schedule: Q04DX003 (ip), vehicle: saline 91 % of control | dose: 170.0 mg/kg/injection, schedule: Q04DX003 (ip), vehicle: saline 87 % of control | [5] 97 % of control | dose: 255.0 mg/kg/injection, schedule: Q04DX003 (ip), vehicle: saline with Tween-80 90 % of control | dose: 385.0 mg/kg/injection, schedule: Q04DX003 (ip), vehicle: saline with Tween-80 96 % of control | [6] 104 % of control and 107 % of control

Cc1c(Cl)ccc2c1S(=O)(=O)c1cccc(Cl)c1-2
inactive: [7] 104 % of control | [8] 96 % of control | [9] 100 % of control

Cc1ccc(S(=O)(=O)NN=C(/C=C/c2ccccc2)/C=C/c2ccccc2)cc1
inactive: dose: 50.0 mg/kg/injection, schedule: Q01DX001 (ip), vehicle: Klucel (hydroxypropylcellulose) (HPC) 102 % of control | dose: 100.0 mg/kg/injection, schedule: Q01DX001 (ip), vehicle: Klucel (hydroxypropylcellulose) (HPC) 107 % of control | dose: 200.0 mg/kg/injection, schedule: Q01DX001 (ip), vehicle: Klucel (hydroxypropylcellulose) (HPC) 103 % of control

CCNC(c1ccccc1)C(O)c1ccccc1 (centres undefined)
inactive: dose: 50.0 mg/kg/injection, schedule: Q04DX002 (ip), vehicle: Klucel (hydroxypropylcellulose) (HPC) 94 % of control | [10] 104 % of control | [7] 105 % of control | [11] 102 % of control

COC1=C(NCc2ccco2)C(=O)C(OC)=C(NCc2ccco2)C1=O
inactive: dose: 50.0 mg/kg/injection, schedule: Q01DX001 (ip), vehicle: carboxymethylcellulose (CMC) 96 % of control | dose: 100.0 mg/kg/injection, schedule: Q01DX001 (ip), vehicle: carboxymethylcellulose (CMC) 91 % of control | dose: 200.0 mg/kg/injection, schedule: Q01DX001 (ip), vehicle: carboxymethylcellulose (CMC) 86 % of control | dose: 400.0 mg/kg/injection, schedule: Q01DX001 (ip), vehicle: carboxymethylcellulose (CMC) 96 % of control

c1ccc(N2CCN(c3c4ccccc4nc4ccccc34)CC2)cc1
inactive: dose: 75.0 mg/kg/injection, schedule: Q01DX001 (ip), vehicle: Klucel (hydroxypropylcellulose) (HPC) 105 % of control | dose: 150.0 mg/kg/injection, schedule: Q01DX001 (ip), vehicle: Klucel (hydroxypropylcellulose) (HPC) 105 % of control | dose: 300.0 mg/kg/injection, schedule: Q01DX001 (ip), vehicle: Klucel (hydroxypropylcellulose) (HPC) 96 % of control

Cc1cc(N=Nc2cccc([N+](=O)[O-])c2)cc(C(=O)O)c1O
inactive: dose: 6.25 mg/kg/injection, schedule: Q01DX001 (ip), vehicle: Klucel (hydroxypropylcellulose) (HPC) 102 % of control | dose: 12.5 mg/kg/injection, schedule: Q01DX001 (ip), vehicle: Klucel (hydroxypropylcellulose) (HPC) 94 % of control | dose: 25.0 mg/kg/injection, schedule: Q01DX001 (ip), vehicle: Klucel (hydroxypropylcellulose) (HPC) 89 % of control

CC(=O)OC1CCC2(C)C(=CCC3C2CCC2(C)c4c(c(-c5ccccc5)nn4-c4ccccc4)CC32)C1 (centres undefined)
inactive: [7] 98 % of control | [8] 90 % of control | [9] 95 % of control

Oc1ccc2ccc3[nH]cnc3c2c1
inactive: [10] 101 % of control | dose: 100.0 mg/kg/injection, schedule: Q04DX003 (ip), vehicle: Klucel (hydroxypropylcellulose) (HPC) 95 % of control | [11] 104 % of control | dose: 200.0 mg/kg/injection, schedule: Q04DX003 (ip), vehicle: Klucel (hydroxypropylcellulose) (HPC) 95 % of control | [12] 97 % of control | dose: 400.0 mg/kg/injection, schedule: Q04DX003 (ip), vehicle: Klucel (hydroxypropylcellulose) (HPC) 94 % of control

CCOC(=N)c1nnn(Cc2ccccc2)c1N
inactive: [4] 89 % of control | [5] 89 % of control

CCCCCCCCCCCCCCCC[N+]1([O-])CCOCC1
inactive: dose: 12.5 mg/kg/injection, schedule: Q01DX009 (ip), vehicle: saline 96 % of control | dose: 25.0 mg/kg/injection, schedule: Q01DX009 (ip), vehicle: saline 102 % of control | dose: 50.0 mg/kg/injection, schedule: Q01DX009 (ip), vehicle: saline 98 % of control

NC1CCCCC1I (centres undefined)
inactive: dose: 75.0 mg/kg/injection, schedule: Q01DX001 (ip), vehicle: acetone 94 % of control | dose: 150.0 mg/kg/injection, schedule: Q01DX001 (ip), vehicle: acetone 104 % of control

O/N=C(/Cc1ccccc1)CC(O)(C(F)(F)F)C(F)(F)F
inactive: [4] 110 % of control | [13] 95 % of control | [5] 95 % of control | [14] 102 % of control | [6] 89 % of control | [15] 95 % of control

O=Cc1ccc(OC(=O)Nc2ccc([N+](=O)[O-])cc2)cc1
inactive: [10] 92 % of control | [11] 90 % of control | [12] 95 % of control

CNS(=O)(=O)c1ccc(C(N)=S)cc1
inactive: dose: 100.0 mg/kg/injection, schedule: Q01DX001 (ip), vehicle: gum acacia 93 % of control | dose: 200.0 mg/kg/injection, schedule: Q01DX001 (ip), vehicle: gum acacia 106 % of control | dose: 400.0 mg/kg/injection, schedule: Q01DX001 (ip), vehicle: gum acacia 98 % of control

Nc1ccccc1Sc1c(N)cc2c3c(cccc13)C(=O)NC2=O
inactive: [10] 90 % of control | [11] 90 % of control | [12] 94 % of control

Cc1csc(N)c1C(N)=O
inactive: dose: 50.0 mg/kg/injection, schedule: Q01DX009 (ip), vehicle: saline with Tween-80 97 % of control | dose: 50.0 mg/kg/injection, schedule: Q04DX003 (ip), vehicle: saline with Tween-80 97 % of control | dose: 100.0 mg/kg/injection, schedule: Q01DX009 (ip), vehicle: saline with Tween-80 103 % of control | [13] 112 % of control | [16] 92 % of control | dose: 100.0 mg/kg/injection, schedule: Q04DX003 (ip), vehicle: saline 117 % of control | dose: 200.0 mg/kg/injection, schedule: Q01DX009 (ip), vehicle: saline with Tween-80 102 % of control | [14] 100 % of control | [17] 97 % of control | dose: 200.0 mg/kg/injection, schedule: Q04DX003 (ip), vehicle: saline 116 % of control | dose: 400.0 mg/kg/injection, schedule: Q01DX009 (ip), vehicle: saline with Tween-80 103 % of control | [15] 109 % of control | [18] 102 % of control | dose: 400.0 mg/kg/injection, schedule: Q04DX003 (ip), vehicle: saline 115 % of control

CCCCCCCCC(=O)CC
inactive: [13] 104 % of control | [14] 98 % of control | [15] 94 % of control

O=S(=O)(C/C=C/CC(Cl)(Cl)Cl)C/C=C/CC(Cl)(Cl)Cl
inactive: dose: 100.0 mg/kg/injection, schedule: Q01DX001 (ip), vehicle: acetone 95 % of control | [13] 90 % of control | dose: 100.0 mg/kg/injection, schedule: Q04DX003 (ip), vehicle: acetone 97 % of control | dose: 200.0 mg/kg/injection, schedule: Q01DX001 (ip), vehicle: acetone 94 % of control | [14] 93 % of control | dose: 200.0 mg/kg/injection, schedule: Q04DX003 (ip), vehicle: acetone 95 % of control | dose: 400.0 mg/kg/injection, schedule: Q01DX001 (ip), vehicle: acetone 89 % of control | [15] 92 % of control | dose: 400.0 mg/kg/injection, schedule: Q04DX003 (ip), vehicle: acetone 95 % of control

CCN(C)CCC(CN)(CCN(C)CC)c1cccc2ccccc12
inactive: [1] 93 % of control | [2] 101 % of control | [3] 93 % of control

NNC(=O)CNc1ccc(Br)cc1F
inactive: [7] 104 % of control | [8] 115 % of control

C=CCNC(=O)OCC
inactive: [16] 100 % of control | [17] 95 % of control | [18] 100 % of control
